{"source": "ChEMBL document CHEMBL1201862", "about": "“PubChem BioAssay data set” (2004)", "assay_in_all_cases": "DTP human tumour cell line panel, 48 h", "key": {"DU-145": {"tested_on": "DU-145"}, "IGROV-1": {"tested_on": "IGROV-1"}, "UACC-257": {"tested_on": "UACC-257"}, "OVCAR-5": {"tested_on": "OVCAR-5"}, "HCC 2998": {"tested_on": "HCC 2998"}, "KM12": {"tested_on": "KM12"}, "A549": {"tested_on": "A549"}, "HT-29": {"tested_on": "HT-29"}, "MCF7": {"tested_on": "MCF7"}, "ACHN": {"tested_on": "ACHN"}, "NCI-H522": {"tested_on": "NCI-H522"}, "HCT-116": {"tested_on": "HCT-116"}, "SK-MEL-5": {"tested_on": "SK-MEL-5"}, "SNB-75": {"tested_on": "SNB-75"}, "COLO 205": {"tested_on": "COLO 205"}, "UACC-62": {"tested_on": "UACC-62"}, "M14": {"tested_on": "M14"}, "SR": {"tested_on": "SR"}, "SNB-19": {"tested_on": "SNB-19"}, "MDA-N": {"tested_on": "MDA-N"}}, "note": "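Test compounds were applied to cells in 96-well plates for 48 hours at 5 doses. Here, GI50 denotes the concentration required for 50% inhibition of growth.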 Active and inactive are the calls of the source. Rule as the data show it: active = GI50 up to about 1.1 µM and inactive = higher.", "data": [{"smiles": "CSc1cc(N)ccc1/N=N/c1ccc(S(N)(=O)=O)cc1", "values": [{"measurement": "GI50", "setting": "DU-145", "value": "34.9 µM (inactive)"}, {"measurement": "GI50", "setting": "IGROV-1", "value": "23.1 µM (inactive)"}, {"measurement": "GI50", "setting": "UACC-257", "value": "80 µM (inactive)"}, {"measurement": "GI50", "setting": "OVCAR-5", "value": "45 µM (inactive)"}, {"measurement": "GI50", "setting": "HCC 2998", "value": "53.6 µM (inactive)"}, {"measurement": "GI50", "setting": "KM12", "value": "30.4 µM (inactive)"}, {"measurement": "GI50", "setting": "A549", "value": "22.1 µM (inactive)"}, {"measurement": "GI50", "setting": "HT-29", "value": "30.3 µM (inactive)"}, {"measurement": "GI50", "setting": "MCF7", "value": "37.3 µM (inactive)"}, {"measurement": "GI50", "setting": "ACHN", "value": "27.2 µM (inactive)"}, {"measurement": "GI50", "setting": "NCI-H522", "value": "17.7 µM (inactive)"}, {"measurement": "GI50", "setting": "HCT-116", "value": "30.5 µM (inactive)"}, {"measurement": "GI50", "setting": "SK-MEL-5", "value": "15.3 µM (inactive)"}, {"measurement": "GI50", "setting": "SNB-75", "value": "15.5 µM (inactive)"}, {"measurement": "GI50", "setting": "COLO 205", "value": "25.8 µM (inactive)"}, {"measurement": "GI50", "setting": "UACC-62", "value": "15.9 µM (inactive)"}, {"measurement": "GI50", "setting": "M14", "value": "38.1 µM (inactive)"}, {"measurement": "GI50", "setting": "SR", "value": "34.6 µM (inactive)"}, {"measurement": "GI50", "setting": "SNB-19", "value": "55.3 µM (inactive)"}, {"measurement": "GI50", "setting": "MDA-N", "value": "61.7 µM (inactive)"}]}, {"smiles": "N=c1ccn2c(n1)OC1C(OP(=O)(O)O)C(CO)OC12", "note": "(stereo not given)", "values": [{"measurement": "GI50", "setting": "DU-145", "value": "7.31 µM (inactive)"}, {"measurement": "GI50", "setting": "IGROV-1", "value": "> 80.7 µM (inactive)"}, {"measurement": "GI50", "setting": "UACC-257", "value": "> 30.2 µM (inactive)"}, {"measurement": "GI50", "setting": "OVCAR-5", "value": "> 100 µM (inactive)"}, {"measurement": "GI50", "setting": "HCC 2998", "value": "11 µM (inactive)"}, {"measurement": "GI50", "setting": "KM12", "value": "> 100 µM (inactive)"}, {"measurement": "GI50", "setting": "A549", "value": "0.575 µM (active)"}, {"measurement": "GI50", "setting": "HT-29", "value": "10.5 µM (inactive)"}, {"measurement": "GI50", "setting": "MCF7", "value": "1.18 µM (inactive)"}, {"measurement": "GI50", "setting": "ACHN", "value": "1.06 µM (active)"}, {"measurement": "GI50", "setting": "NCI-H522", "value": "> 80.4 µM (inactive)"}, {"measurement": "GI50", "setting": "HCT-116", "value": "2.06 µM (inactive)"}, {"measurement": "GI50", "setting": "SK-MEL-5", "value": "55.1 µM (inactive)"}, {"measurement": "GI50", "setting": "SNB-75", "value": "> 88.3 µM (inactive)"}, {"measurement": "GI50", "setting": "COLO 205", "value": "> 70.6 µM (inactive)"}, {"measurement": "GI50", "setting": "UACC-62", "value": "10.4 µM (inactive)"}, {"measurement": "GI50", "setting": "M14", "value": "1.02 µM (active)"}, {"measurement": "GI50", "setting": "SR", "value": "3.12 µM (inactive)"}, {"measurement": "GI50", "setting": "SNB-19", "value": "25 µM (inactive)"}, {"measurement": "GI50", "setting": "MDA-N", "value": "> 83.9 µM (inactive)"}]}, {"smiles": "CC(=O)O[C@@H]1C(C2CCCCC2)C=[N+]([O-])O[C@@H]1OC1CCCC1(c1ccccc1)c1ccccc1", "note": "(stereo not given in full)", "values": [{"measurement": "GI50", "setting": "DU-145", "value": "10.9 µM (inactive)"}, {"measurement": "GI50", "setting": "IGROV-1", "value": "3.21 µM (inactive)"}, {"measurement": "GI50", "setting": "UACC-257", "value": "14.9 µM (inactive)"}, {"measurement": "GI50", "setting": "OVCAR-5", "value": "15.8 µM (inactive)"}, {"measurement": "GI50", "setting": "HCC 2998", "value": "8.57 µM (inactive)"}, {"measurement": "GI50", "setting": "KM12", "value": "8.04 µM (inactive)"}, {"measurement": "GI50", "setting": "A549", "value": "14.8 µM (inactive)"}, {"measurement": "GI50", "setting": "HT-29", "value": "2.09 µM (inactive)"}, {"measurement": "GI50", "setting": "MCF7", "value": "3.18 µM (inactive)"}, {"measurement": "GI50", "setting": "ACHN", "value": "2.21 µM (inactive)"}, {"measurement": "GI50", "setting": "NCI-H522", "value": "2.07 µM (inactive)"}, {"measurement": "GI50", "setting": "HCT-116", "value": "4.06 µM (inactive)"}, {"measurement": "GI50", "setting": "SK-MEL-5", "value": "14.3 µM (inactive)"}, {"measurement": "GI50", "setting": "SNB-75", "value": "3.85 µM (inactive)"}, {"measurement": "GI50", "setting": "COLO 205", "value": "5.73 µM (inactive)"}, {"measurement": "GI50", "setting": "UACC-62", "value": "5.81 µM (inactive)"}, {"measurement": "GI50", "setting": "M14", "value": "5.31 µM (inactive)"}, {"measurement": "GI50", "setting": "SR", "value": "2.62 µM (inactive)"}, {"measurement": "GI50", "setting": "SNB-19", "value": "16.5 µM (inactive)"}, {"measurement": "GI50", "setting": "MDA-N", "value": "4.28 µM (inactive)"}]}]}
